Assay results taken from the supplement of paper PMC10307832.

Legend:
Assay in all cases: relative viability (nuclei count vs DMSO), 5 days (fraction); higher = more cells survive
BAY61-3606 + Crizotinib = compound: COC1=C(C=C(C=C1)C2=CC3=NC=CN3C(=N2)NC4=C(C=CC=N4)C(=O)N)OC [BAY61-3606] + C[C@@H](Oc1cc(-c2cnn(C3CCNCC3)c2)cnc1N)c1c(Cl)ccc(F)c1Cl [Crizotinib] (partner 1 µM)
Method in brief: (§1)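 The day after seeding in 1536-well plates, lung cancer cell lines were treated by pin tool with a single drug, or with a fixed anchor-drug dose together with five library-drug doses (not always all listed) in √10 steps. After 5 days, a combined fix-and-stain solution (final 0.05% Triton X-100, 1% formaldehyde, 1 ug/ml Hoechst) was added. Nuclei counted on 4× images gave relative viability as treated counts over vehicle counts, reported as the median of duplicate plates.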

BAY61-3606 + Linsitinib = compound: COC1=C(C=C(C=C1)C2=CC3=NC=CN3C(=N2)NC4=C(C=CC=N4)C(=O)N)OC [BAY61-3606] + C[C@]1(O)C[C@@H](c2nc(-c3ccc4ccc(-c5ccccc5)nc4c3)c3c(N)nccn32)C1 [Linsitinib] (partner 1 µM)
Method in brief: as §1

[1] = compound: COc1cccc2c1C(=O)c1c(O)c3c(c(O)c1C2=O)C[C@@](O)(C(=O)CO)C[C@@H]3O[C@H]1C[C@H](N)[C@H](O)[C@H](C)O1 [Doxorubicin] + CC(=O)c1c(C)c2cnc(Nc3ccc(N4CCNCC4)cn3)nc2n(C2CCCC2)c1=O [Palbociclib] (partner 0.5 µM)
Method in brief: as §1

Doxorubicin + Decitabine = compound: COc1cccc2c1C(=O)c1c(O)c3c(c(O)c1C2=O)C[C@@](O)(C(=O)CO)C[C@@H]3O[C@H]1C[C@H](N)[C@H](O)[C@H](C)O1 [Doxorubicin] + Nc1ncn([C@H]2C[C@H](O)[C@@H](CO)O2)c(=O)n1 [Decitabine] (partner 2 µM)
Method in brief: as §1

Row | Cell Line | relative viability (BAY61-3606 + Crizotinib; first compound 0.02 µM) | relative viability (BAY61-3606 + Crizotinib; first compound 0.06325 µM) | relative viability (BAY61-3606 + Crizotinib; first compound 0.2 µM) | relative viability (BAY61-3606 + Crizotinib; first compound 0.6325 µM) | relative viability (BAY61-3606 + Crizotinib; first compound 2 µM) | relative viability (BAY61-3606 + Linsitinib; first compound 0.02 µM) | relative viability (BAY61-3606 + Linsitinib; first compound 0.06325 µM) | relative viability (BAY61-3606 + Linsitinib; first compound 0.2 µM) | relative viability (BAY61-3606 + Linsitinib; first compound 0.6325 µM) | relative viability (BAY61-3606 + Linsitinib; first compound 2 µM) | relative viability ([1]; first compound 0.001 µM) | relative viability ([1]; first compound 0.003162 µM) | relative viability ([1]; first compound 0.01 µM) | relative viability ([1]; first compound 0.03162 µM) | relative viability ([1]; first compound 0.1 µM) | relative viability (Doxorubicin + Decitabine; first compound 0.001 µM) | relative viability (Doxorubicin + Decitabine; first compound 0.003162 µM) | relative viability (Doxorubicin + Decitabine; first compound 0.01 µM) | relative viability (Doxorubicin + Decitabine; first compound 0.03162 µM) | relative viability (Doxorubicin + Decitabine; first compound 0.1 µM)
1 | NCI-H2347 | 0.749 | 0.589 | 0.781 | 0.848 | 0.756 | 1.03 | 0.97 | 0.978 | 1.03 | 0.898 | 0.456 | 0.427 | 0.38 | 0.394 | 0.506 | 0.612 | 0.71 | 0.646 | 0.539 | 0.557
2 | NCI-H2405 | 0.856 | 0.787 | 0.764 | 0.849 | 0.661 | 1.05 | 0.835 | 0.94 | 1.12 | 0.639 | 0.537 | 0.534 | 0.51 | 0.463 | 0.447 | 0.711 | 0.759 | 0.774 | 0.579 | 0.497
3 | NCI-H3122 | 0.252 | 0.286 | 0.279 | 0.272 | 0.219 | 1.08 | 1.08 | 0.974 | 0.924 | 0.918 | 0.182 | 0.189 | 0.187 | 0.14 | 0.188 | 0.391 | 0.514 | 0.389 | 0.384 | 0.437
4 | PC-3 [JPC-3] | 1.03 | 0.961 | 0.979 | 0.96 | 0.944 | 0.895 | 0.906 | 0.947 | 1.01 | 0.93 | 0.526 | 0.585 | 0.544 | 0.518 | 0.522 | 0.765 | 0.803 | 0.907 | 0.829 | 0.732
5 | PC-14 | 0.855 | 0.803 | 0.865 | 0.974 | 0.757 | 1.05 | 1.04 | 0.916 | 0.968 | 0.826 | 0.532 | 0.501 | 0.312 | 0.194 | 0.0531 | 0.246 | 0.228 | 0.238 | 0.0977 | 0.0677
6 | RERF-LC-KJ | 0.826 | 0.777 | 0.817 | 0.819 | 0.785 | 0.844 | 0.918 | 0.852 | 0.886 | 0.807 | 1.07 | 1.15 | 0.921 | 0.542 | 0.653 | 0.78 | 0.671 | 0.598 | 0.334 | 0.282
7 | SK-LU-1 | 1.08 | 0.853 | 0.904 | 0.889 | 0.398 | 1.13 | 1.21 | 0.987 | 0.984 | 0.482 | 0.351 | 0.414 | 0.351 | 0.333 | 0.355 | 0.68 | 0.745 | 0.554 | 0.445 | 0.473
8 | SK-MES-1 | 1.01 | 0.971 | 0.962 | 0.966 | 0.876 | 1 | 1.13 | 1.09 | 1.09 | 0.989 | 0.326 | 0.319 | 0.321 | 0.281 | 0.23 | 0.353 | 0.328 | 0.261 | 0.196 | 0.194
9 | SW 1573 | 0.802 | 0.65 | 0.745 | 0.785 | 0.588 | 0.821 | 0.762 | 0.803 | 0.674 | 0.625 | 0.365 | 0.316 | 0.162 | 0.0939 | 0.0476 | 0.566 | 0.417 | 0.166 | 0.129 | 0.098
